Earlier results on two compounds are cited in patent US8283180B2, “Periodic acid-schiff staining with detection in the infrared range” (Amicus Therapeutics, Inc., priority 2007, dated 2012).

Data set [1] has as its system mice.
Data set [2] relates to rats.
For data set [3], the system named is Japanese medaka (Oryzias latipes). To be noted: low DCA exposure concentrations; as early as week two of exposure.
For data set [4], the system named is infantile Pompe disease.

For `O=C(O)C(Cl)Cl` [DCA, dichloroacetic acid], the carcinogenicity entry in data set [1] and in data set [2] was “carcinogenic” in each case. Moreover, in data set [3], the “changes in the liver” value was “marked hepatocellular cytoplasmic vacuolation, cytomegaly, karyomegaly, nuclear atypia and multifocal areas of hepatocellular necrosis and loss”.
Consider “Myozyme: enzyme replacement therapy with recombinant α-glucosidase, approved for infantile Pompe disease”, for which, in data set [4], the left-ventricular mass index entry was “improved with treatment”. Further, the “motor function by the Alberta Infant Motor Scale (AIMS)” value in data set [4] (unblinded assessment) is on record as “did not improve with treatment”.
